Source: the METLIN SMRT retention time set (Domingo-Almenara et al. 2019)

Experiment: gradient 5% acetonitrile 3 min, to 50% in 2 min, to 85% in 15 min, held 3 min, 100 µL/min
Conditions: column: Zorbax Extend-C18 2.1 x 50 mm; eluents: water / acetonitrile, 0.1% formic acid
Method in brief: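 The system's dead and dwell volumes were 40 μL and 900 μL, with a Zorbax Extend-C18 column (2.1 × 50 mm, 1.8 μm) run at 100 μL/min in water and acetonitrile containing 0.1% formic acid each. Pure standards were analyzed in mixtures of ~100 molecules by HPLC–quadrupole time-of-flight mass spectrometry in positive and negative ionization mode. Retention time was assigned from computationally picked, manually inspected adduct peaks.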

| Structure (SMILES) | RP-LC retention time [s] |
| --- | --- |
| CCOc1ccccc1NC(=O)Cn1cnc2nc(N3CCCC(C(=O)NC4CC4)C3)sc2c1=O (centres undefined) | 723 |
| Cc1ccc(C)c(N2CCN(c3ccnc(SCC(=O)Nc4ccc(F)cc4)n3)CC2)c1 | 891 |
| O=S(=O)(c1ccccc1F)N1CC(c2nc(Cc3ccccc3)no2)C1 | 976 |
| Cc1cc(C)n2c(Nc3cccc(C(F)(F)F)c3)c(-c3ccc(F)cc3)nc2n1 | 829 |
| COc1ncc(C(=O)N2CCCC2)cn1 | 589 |
| Cc1nnc(CNC(=O)c2cc(-c3ccccc3)nn2C)o1 | 646 |
| COc1ccc2nc3oc(C(=O)NCCCN4CCCC(C)C4)cc3cc2c1 (centres undefined) | 934 |
| COc1ccc(OC)c2sc(NC(=O)c3ccc(S(=O)(=O)N4CCCC4)cc3)nc12 | 872 |
| Cc1nn2c(CNS(=O)(=O)c3ccccc3Cl)c(-c3ccccc3)nc2s1 | 853 |
| CCN1C(=O)c2cccnc2Sc2cc(NC(=O)c3cccc(C(F)(F)F)c3)ccc21 | 957 |
| Cc1cc(C)cc(NC(=O)Cn2nc3n(c2=O)CCCC3)c1 | 674 |
| Cc1ccc2c(c1)C(=O)NC1(CCN(C(=O)c3ccc4c(c3)OCO4)CC1)N2C | 721 |
| COc1ccccc1-c1noc(C2CCCN2C(=O)Nc2cc(C)ccc2C)n1 (centres undefined) | 906 |
| O=S(=O)(c1ccc(Cl)s1)N1CCC(c2nnc(-c3ccco3)o2)CC1 | 868 |
| CCc1ccc(C2=C(C)C(N3CCC(NC(=O)NCCCOC)CC3)=NS2(=O)=O)cc1 | 739 |
| Cc1ccc(C(=O)Nc2nc(-c3ccc4c(c3)NC(=O)CO4)cs2)cc1 | 873 |
| Cc1ccc(NC(=O)c2cn(C)nc2S(=O)(=O)N2CCSCC2)cc1 | 928 |
| CCCN(CC(=O)N1CCc2sccc2C1COc1ccc(F)cc1)C(=O)NCC (centres undefined) | 859 |
| Cc1cc(C(=O)Nc2ccc3c(c2)N(S(=O)(=O)c2ccc(F)cc2)CCC3)c(C)o1 | 1010 |
| COc1ccc(-n2nnc(-c3nsc(Nc4ccc(Cl)cc4)n3)c2C)cc1 | 1060 |
| COc1ccc(-c2ccc(=O)n(Cc3nc(-c4cccc(Br)c4)no3)n2)cc1 | 997 |
| O=C(CCc1nc(CSc2nnc(-c3ccccc3)o2)no1)Nc1ccccc1 | 863 |
| CCN1c2ccccc2C(=O)NC12CCN(C(=O)NC1CCCCC1)CC2 | 771 |

| Structure (SMILES) | RP-LC retention time [s] |
| --- | --- |
| COc1ccc(OC)c(-c2cn3ccn(-c4ccc(Cl)cc4)c(=O)c3n2)c1 | 887 |
| CCCC(=O)Nc1ccc2nc(N3CCN(c4cc(Cl)ccc4C)CC3)cc(C(=O)O)c2c1 | 746 |
| COc1cc(Cl)ccc1-c1nc(-c2ccc3c(c2)ncn3CCC(=O)N2CCCC2)no1 | 786 |
| CC(=O)Nc1nc(-c2ccc3c(c2)N(C)C(=O)CO3)cs1 | 700 |
| COc1ccc(C(=O)NCCc2c[nH]c3ccc(F)cc23)cc1OC | 758 |
| CN(CCCNC(=O)C1CCc2nc(N3CCCCC3)ncc2C1)c1ccccc1 (centres undefined) | 793 |
| COc1cc(NC(=O)CN2CCN(Cc3ccc(C)cc3)C(=O)C2=O)cc(OC)c1OC | 709 |
| CCOC(=O)c1ccccc1NC(=O)c1c2c(cn(-c3ccccc3)c1=O)C(=O)CC(C)(C)C2 | 1120 |
| CCn1cc(CN2CCC(C(=O)NCc3ccc(N(C)C)cc3)CC2)c2cc(OC)ccc21 | 603 |
| O=C(NCc1cccs1)C1CCCN(C(=O)c2cc(-c3ccncc3)n[nH]2)C1 (centres undefined) | 574 |
| O=C(c1cnc2ccccc2n1)N1CC(c2nc(-c3cccc(C(F)(F)F)c3)no2)C1 | 1030 |
| CCN1CCC(N2CCC3(CC2)NCCc2c3[nH]c3ccc(OC)cc23)CC1 | 517 |
| CCC(C)NC(=O)c1nc(Nc2cccc(C)c2)c2ccccc2n1 (centres undefined) | 819 |
| Cc1ccc(S(=O)(=O)N2CCC(C3CCNC3)CC2)cc1F (centres undefined) | 651 |
| Cc1ccc(NC(=O)N2CCC(C)(C(=O)NCc3ccc(F)cc3)CC2)cc1Cl | 664 |
| CN(C)c1nc2ncn3c(=O)n(CC(=O)Nc4ccc(F)c(F)c4)nc3c2s1 | 696 |
| Cc1nc(OCC(=O)Nc2ccc(Cl)c(Cl)c2)c2ccccc2n1 | 859 |
| Cn1cnc2ccc(-c3noc(-c4ccc(Br)cc4)n3)cc21 | 848 |
| Cc1cc2n(n1)CCC(=O)N2CCCC(=O)NCCCOC(C)C | 618 |
| Clc1ccc(-c2nc3ccc(Cl)cn3c2Nc2ccc3c(c2)OCCO3)cc1 | 915 |
| CCOc1nccnc1NC1CCN(C(=O)c2ccco2)CC1 | 585 |
| Cc1ccc(N2CC(c3noc(-c4cccn4C)n3)CC2=O)cc1 (centres undefined) | 611 |
| COc1ccc(-c2cc(N3CCN(C(=O)Cc4ccc(Br)cc4)CC3)n[nH]2)cc1 | 842 |

| Structure (SMILES) | RP-LC retention time [s] |
| --- | --- |
| CCCNC(=O)C1CCCN(c2nc3ccsc3c(=O)n2-c2cccc(OC)c2)C1 (centres undefined) | 735 |
| CCCNC(=O)C1CCN(c2ccc(SCC(=O)NCc3ccc(C)c(C)c3)nn2)CC1 | 663 |
| COc1ccc(-c2nnc(SCC(=O)Nc3ccc(S(N)(=O)=O)cc3)o2)cc1 | 736 |
| O=C(CCc1ccccc1)N1CCN(c2cc(-c3cccs3)[nH]n2)CC1 | 808 |
| CCOC(=O)c1sc2ncnc(N3CCN(c4ccccc4OC)CC3)c2c1C | 1200 |
| CC1=C(c2ccc(C)cc2)S(=O)(=O)N=C1N1CCCN(C(=O)c2ccccc2C)CC1 | 898 |
| Cc1ccc(-c2cnn3c(N4CCN(c5ccccn5)CC4)cc(C)nc23)cc1 | 751 |
| O=C(Nc1ccc(Cl)cc1)c1cn(CC(O)c2ccc3c(c2)OCO3)nn1 (centres undefined) | 841 |
| O=C(NCc1nc(-c2ccccc2)no1)c1cc(C2CC2)on1 | 822 |
| Clc1ccccc1-c1nc(-c2ccnc(N3CCOCC3)c2)no1 | 994 |
| COc1cccc(OC)c1C(=O)Nc1nc2c(s1)CCc1ccccc1-2 | 1000 |
| CSc1ccc(-c2nc3cnccn3c2Nc2c(C)cccc2C)cc1 | 966 |
| CC(C)Cn1c(=O)c(C(=O)NCc2cccc(F)c2)nc2cccnc21 | 609 |
| Cc1nc(Nc2ccccn2)sc1C(=O)N1CCSCC1 | 703 |
| O=c1c2sccc2n(Cc2nc(-c3ccc(F)cc3)no2)c(=O)n1CCc1ccccc1 | 1140 |
| Cc1ncc2c(n1)CCCN(CC(=O)N1CCCC1)C2=O | 579 |
| CN1C(=O)c2cc(C(=O)NCCCc3ccccc3)nn2CC1(C)C(=O)NCc1ccccc1 (centres undefined) | 814 |
| CCCN1CCN(C(=O)C2CCN(c3cnn(CCC)c(=O)c3)CC2)CC1 | 570 |
| CCc1csc(-c2ccc(N3CCN(C(=O)c4ccc(OC)c(OC)c4)CC3)nc2)n1 | 839 |
| O=C(NCCC1=CCCCC1)C1CCCN(c2ncc(-c3cccc(F)c3)cn2)C1 (centres undefined) | 1220 |
| CC(C)N1C[C@H](Oc2ccccc2)[C@@H]1C1CCN(S(=O)(=O)c2cccnc2)CC1 | 669 |
| O=S(=O)(c1cccc(F)c1)N1CC(n2cc(COc3ccc(F)cc3)nn2)C1 | 923 |
| Cn1cc(C(CNC(=O)Nc2ccc3c(c2)OCO3)c2cccnc2)c2ccccc21 (centres undefined) | 684 |

| Structure (SMILES) | RP-LC retention time [s] |
| --- | --- |
| CCOC(=O)C(NC(=O)Nc1c(-c2cccc(C)c2)nc2ccccn12)C(C)C (centres undefined) | 690 |
| CC(C)(C)NC(=O)c1csc(-c2ccc(N3CCCC3)nc2)n1 | 670 |
| Cc1ccc(N2CC(c3nc(-c4ccc5c(c4)OCO5)no3)CC2=O)cc1C (centres undefined) | 911 |
| COc1cc(-c2noc(Cc3nnc(-c4cc(C)cc(C)c4)o3)n2)cc(OC)c1OC | 1050 |
| CN1CCOc2ccc(NC(=O)c3cc(-c4ccc(F)cc4)n[nH]3)cc2C1=O | 686 |
| Cc1nc(-c2cn(C(C)C)c3ncccc23)sc1C(=O)N1CCCC(C)C1 (centres undefined) | 1050 |
| CC(C)C(=O)Nc1nc(-c2cccc3ccccc23)cs1 | 1020 |
| CC1(C(=O)NCc2ccccc2)CN(S(=O)(=O)c2ccccc2)CC(=O)N1C1CCCCCC1 (centres undefined) | 1060 |
| O=C(Cc1ccccc1Cl)Nc1nnc(-c2ccc(OC(F)(F)F)cc2)o1 | 896 |
| CC(C)c1nnc(-c2ccc(S(=O)(=O)N3CCN(C4CCCCC4)CC3)o2)o1 | 644 |
| COc1ccccc1N1CCN(CCn2c(=O)c3c(c4ccccc4n3C)n(C)c2=O)CC1 | 784 |
| CC(C)CNC(=O)C1CCN(c2nc3ccc(-c4cncnc4)nc3s2)CC1 | 663 |
| CC(=O)Nc1nnc(SCc2cc(=O)c(OC(=O)c3ccccc3Cl)co2)s1 | 699 |
| O=C(CSc1nnc(-c2cccs2)o1)N1CCc2ccccc21 | 875 |
| CCCCNC(=O)c1cc(NS(=O)(=O)c2c(C)cc(C)cc2C)cnc1N1CCNCC1 | 661 |
| COc1ccc(N(Cc2nnc3n2CCCCC3)C(=O)Nc2cccc(OC)c2)cc1 | 714 |
| Cc1nnc(-c2sccc2C)o1 | 742 |
| CCCCC(C=O)NC(=O)[C@H](CC(C)C)NC(=O)OCc1ccccc1 (some centres undefined) | 970 |
| CCOC(=O)c1nn(-c2ccccc2)cc1O | 830 |
| CCOC(=O)CCC(=O)Nc1cc(C)nn1-c1nc(-c2ccc(F)cc2)cs1 | 1100 |
